Results from patent US7396682B2, “Method for cell adhesion and wound healing” (Regen Biotech, Inc., priority 2000, dated 2008).

Key:
HCE cells [1] = assay: Divalent cation sensitivity of βig-h3-mediated adhesion; assay type: cell-based, human; conditions: cells incubated 30 min with divalent cations in HBS
Method: To analyze the divalent cation sensitivity of βig-h3-mediated adhesion, cells were suspended in HEPES-buffered saline (HBS) (150 mM NaCl, 25 mM HEPES, 2 mM EDTA, pH 7.4) at a density of 2×10^5 cells/ml and incubated at 37° C. for 30 min. Then, they were washed twice in HBS and resuspended in the same buffer. Aliquots of cells (50 μl) were then added to the microculture plate wells and incubated for 30 min at 37° C. in a humidified atmosphere of 5% CO2 with 50 μl aliquots of HBS containing divalent cations (MnCl2, MgCl2 or CaCl2) at a concentration twice as large as the final concentration. Subsequently, they were plated on ligand-coated dishes to perform the adhesion assay.

HCE cells [2] = assay: Inhibition assay of HCE cell adhesion using matrix peptides and reagents; assay type: cell-based, human; conditions: HCE cells preincubated 30 min with reagent; for inhibition of cell adhesion to fibronectin: dishes coated with 10 μg/ml fibronectin; for inhibition of cell adhesion to βig-h3: dishes coated with 10 μg/ml βig-h3
Method: In order to identify cell surface receptors involved in the cell adhesion activity of βig-h3 protein, an inhibition assay was performed using various reagents.
Initially, plastic culture dishes were coated with 10 μg/ml fibronectin, βigh3-WT or βigh3-ΔRGD. HCE cells were preincubated for 30 min in media containing 5 mM EDTA, 100 μg/ml βigh3-WT, 100 μg/ml βigh3-ΔRGD, 1 mM RGD, 1 mM RGE or 100 μg/ml fibronectin, or none of them, and then assayed for cell adhesion as in Example 1.

K562 cells = assay: K562 cell adhesion to coated proteins (hexosaminidase analysis); assay type: cell-based; conditions: 1 hour
Method: For another control experiment, K562 cells, known to express α5, but not α3 integrin, were used. K562 cells were inoculated onto plates coated with βigh3-WT, fibronectin, laminin, or type I collagen and incubated for 1 hour, followed by the hexosaminidase analysis.

[3] = test system: dermal whole layer wounds on the backs of rats; assay: Wound healing with ointment bases on dermal whole layer wounds (2 cm) of rats; assay type: in vivo, rat; set-up: key to Formation grade of collagenous fibers at wound: 0: negative; 1+: insignificant; 2+: scatteringly formed; 3+: very dense; key to Re-ephithelialization of Wound (grade): 0: zero was set for the formation of no epithelial layers; 1+ for initiation of epithelialization; 2+ for incomplete epithelial layer structure; 3+ for complete epithelial layer structure; conditions: for wound area: ointment 100 μg/ml, 1 g per day, mean
Method: To compare wound healing activity between the recombinant βig-h3 protein His-β-b, which contains all of the four fas-1 domains, like native βig-h3 protein, and the recombinant βig-h3 protein βigh3-D-IV, which contains the 4th domain alone, ointment bases comprising the recombinant proteins were tested as follows.
Four dermal whole layer wounds, each 2 cm in diameter, were made on the backs of rats and divided into test groups 1-A, 1-B, 1-C and 1-D according to the ointment applied thereto.
1-A: coated at a dose of 1 gm per day with an ointment base combined with no materials.
1-B: coated at a dose of 1 gm per day with an ointment in which fibronectin was combined at a concentration of 100 μg/ml with a base.
1-C: coated at a dose of 1 g per day with an ointment in which Hisβ-b protein was combined at a concentration of 100 μg/ml with a base.
1-D: coated at a dose of 1 g per day with an ointment in which βigh3-D-IV protein was combined at a concentration of 100 μg/ml with a base.
The backs of etherized rats were shaved, followed by sterilizing the shaved region with betadin solution. In test group 1, the back of each rat was cut by use of a No. 15 surgical blade to form four circular wounds with a diameter of 2 cm penetrating the whole dermal layers. Ointments for test groups 1-A, 1-B, 1-C and 1-D were applied at an amount of about 1 g to the wounds which were then covered with a synthetic dressing (Tegaderm® 3M) and lightly bandaged. Application of ointments was performed once every day.
With a base of an aqueous material (SamA base), each of the ointments contained, per 1 g, spermaceti 38 mg, stearyl alcohol 116 mg, polyethylglycol 38 mg, conc. glycerin 192 mg, ethanol 23 mg, […], ethyl paraoxybenzoate 0.87 mg, butyl paraoxybenzoate 0.12 mg, and purified water.
First, morphologies of wounds were observed. The same scale was positioned near each wound and pictures were taken at the same distance from each wound. Pictures were scanned in a computer and used to measure areas of the wounds with the aid of NIH image analysis system (Bio-Optics). To take the pictures, the muscle was completely relaxed by etherizing the rats. Measurements were performed once every other day until the 22nd day. For comparing test groups, the measured values were analyzed according to ANOVA test and Scheffer's test.
Histological analysis was conducted under an optical microscope. Biopsies of wound sites were taken at days 3, 7, 10, 14 and 20, and fixed in 10% formalin and solidified with paraffin. 6 μm slices of the samples were dyed with hematoxylin-eosin (H&E) and Masson's trichrome before observation under a microscope. Wound healing effects according to time of each test material were evaluated through re-epithelialization and formation of collagenous fibers. In the case of re-epithelialization, epithelial formation was semi-quantified in such a way that zero was set for the formation of no epithelial layers, 1+ for initiation of epithelialization, 2+ for incomplete epithelial layer structure, and 3+ for complete epithelial layer structure. Regarding comparison among test groups and differences according to time within each group, measured values were statistically analyzed using ANOVA test and Scheffe's test. As for collagenous fiber formation, it was graded as 1+ for insignificant formation of collagenous fibers as observed with trichrome dye, 2+ for scatteringly spaced collagenous fibers, and 3+ for dense collagenous fibers.

[4] = test system: circular dermal whole layer wounds on the back of each rat; assay: Wound healing with chitosan base composites on dermal whole layer wounds (7 mm) of rats; assay type: in vivo; conditions: chitosan base with 500 μg/ml protein, Mean ± S.D
Method: Adult Spraque-Dawley lineage rats with a body weight of 250-300 gm were raised with standard feedstuff at a constant temperature and humidity.
In test group 2, four circular dermal whole layer wounds were made on the back of each rat and coated with chitosan bases combined with materials of interest:
2-A: wound coated with chitosan base only
2-B: wound coated with chitosan base in combination with 500 μg/ml of fibronectin
2-E: wound coated with chitosan base in combination with 500 μg/ml of βig-h3 D-IV 3X protein
2-F: wound coated with chitosan base in combination with 500 μg/ml of βig-h3 D-IV 4X protein
The composites based on chitosan were prepared as follows. 1 g of water soluble chitosan (poly(1-4) 2-amino-2-deoxy-β-D-glucan) with a molecular weight of 600,000 Da was dissolved in 100 ml of sterile distilled water and the resulting 1% solution was dispensed in aliquot of 2 ml to 12-well plate (Corning, USA), followed by the addition of 100 μg of gentamycin per well. Fibronectin, βigh3-D-IV 3X, and βigh3-D-IV 4X were individually added to a concentration of 500 μg/ml and frozen at −70° C., followed by freeze-drying in a freeze drier (Ilshin) for 12 hours to give disc-shaped composites.
The backs of etherized rats were shaved, followed by sterilizing the shaved region with betadin solution. Penetrating the whole dermal layers, four circular wounds with a diameter of 7 mm were formed on the back of each rat. The wounds were covered with composites used for test groups 2-A, 2-B, 2-E and 2-F, respectively, and then with Tegaderm® (3M) and lightly bandaged. The composites were changed with fresh ones every three days.
Wound healing effects were evaluated by determining appearances of the wounds as in Example 4-2.

[5] = test system: Human corneal epithelial (HCE) cells; assay: HCE cell adhesion and spreading assay on protein-coated plates; assay type: cell-based; conditions: HCE cells on coated protein, 1 hour at 37° C.
Method: Human corneal epithelial (HCE) cells used in this assay were cultured in DMEM ([…], Gibco BRL) supplemented with 15% fetal bovine serum, Gentamicin (40 μg/ml), insulin (5 μg/ml), cholera toxin (0.1 μg/ml) and human epidermal growth factor (hEGF) at 37° C. in 5% CO2.
The cell adhesion assay was performed as follows. First, the recombinant βig-h3 proteins or other extracellular matrix proteins were let to adhere to the bottoms of 96-well microculture plates (Falcon) by incubation at 37° C. for 1 hour and blocked with PBS containing 0.2% BSA. The coated extracellular matrix proteins were human plasma vitronectin (Promega), purified human plasma fibronectin (pFN), chicken collagen types I and II (Chemicon International Inc.), bovine collagen types IV and VI (Chemicon), mouse laminin (Chemicon), and bovine serum albumin (BSA) (Sigma). Cells were trypsinized and suspended in the culture media at a density of 2×10^5 cells/ml. 0.1 ml of the cell suspension was added to each well of the plates coated with the recombinant proteins.
Following incubation at 37° C. for 1 hour, unattached cells were removed by rinsing with PBS. Attached cells were incubated for 1 hour at 37° C. in 50 mM citrate buffer, pH 5.0, containing 3.75 mM p-nitrophenol-N-acetyl 1-β-D-glycosaminide as a hexosaminidase substrate and 0.25% Triton X-100, followed by the addition of 50 mM glycine buffer, pH 10.4, containing 5 mM EDTA to block the enzyme activity. A measurement was made of absorbance at 405 nm in a Multiskan MCC/340 microplate reader.
To determine cell area as an index for cell adhesion activity, 4×10^4 cells were applied to substrates in 48-well culture plates. The attached cells were fixed weith 8% glutaraldehyde (Sigma) and then stained with 0.25% Crystal Violet (Sigma) in 20% methanol. Measurement of cell areas was performed by Image-Pro plus software (Media Cybernetics). Experiments were repeated in triplicate with 200 or 300 measurements per site for each experiment. Data is reported as the mean area at specific time points±standard error of mean.

Q: With `[Ca+2].[Cl-].[Cl-]` [Ca^2+, CaCl2] as the molecule, how does the “promotion of cell adhesion to βig-h3 by divalent cations” value (HCE cells [1]) read?
A: only marginally

Q: Which results are given for “Fibronectin: positive control; purified human plasma fibronectin in cell assays, purified from citrated rat plasma for wound tests”?
A: inhibition of cell adhesion to fibronectin (HCE cells [2]): significantly inhibited; inhibition of cell adhesion to βig-h3 (HCE cells [2]): partially inhibited; adhesion of K562 cells to coated protein (K562 cells): adhered; wound area ([3]; Day 0): 3.17; wound area ([3]; Day 2): 2.38 cm²; Formation grade of collagenous fibers at wound ([3]; Day 3): 1+; Re-ephithelialization of Wound (grade) ([3]; Day 3): 0; wound area ([3]; Day 4): 2.01; wound area ([3]; Day 6): 1.83; Formation grade of collagenous fibers at wound ([3]; Day 7): 2+; Re-ephithelialization of Wound (grade) ([3]; Day 7): 1+; wound area ([3]; Day 8): 1.39 cm²; Formation grade of collagenous fibers at wound ([3]; Day 10): 2+; Re-ephithelialization of Wound (grade) ([3]; Day 10): 1+; wound area ([3]; Day 10): 1.26 cm²; wound area ([3]; Day 12): 0.54; Formation grade of collagenous fibers at wound ([3]; Day 14): 3+; Re-ephithelialization of Wound (grade) ([3]; Day 14): 2+; wound area ([3]; Day 14): 0.39; wound area ([3]; Day 16): 0.25; wound area ([3]; Day 18): 0.16; Formation grade of collagenous fibers at wound ([3]; Day 20): 3+; Re-ephithelialization of Wound (grade) ([3]; Day 20): 3+; wound area ([3]; Day 20): 0.12; wound area ([3]; Day 22): 0.06; reduction in wound area compared with ointment base alone ([3]; ointment application, p<0.05 versus group I-A): more quickly reduced; completion of re-epithelialization ([3]; optical microscope): 20 days; Remaining wound area ([4]; Day 0): 49.2 ± 0.5 mm^2; Remaining wound area ([4]; Day 3): 24.1 ± 0.6^b mm^2; Remaining wound area ([4]; Day 6): 12.9 ± 0.6^b mm^2; Remaining wound area ([4]; Day 9): 9.7 ± 0.8^b mm^2; Remaining wound area ([4]; Day 12): 3.2 ± 0.4^b mm^2; Remaining wound area ([4]; Day 15): 0.8 ± 0.2^b mm^2

B1: βigh3-WT: wild-type human recombinant βig-h3 protein (SEQ ID NO: 22) (protein, UniProt Q15582 24-683, looked up)
Transforming growth …: GPAKSPYQLVLQHSRLRGRQHGPNVCAVQKVIGTNRKYFTNCKQWYQRKICGKSTVISYECCPGYEKVPGEKGCPAALPLSNLYETLGVVGSTTTQLYTDRTEKLRPEMEGPGSFTIFAPSNEAWASLPAEVLDSLVSNVNIELLNALRYHMVGRRVLTDELKHGMTLTSMYQNSNIQIHHYPNGIVTVNCARLLKADHHATNGVVHLIDKVISTITNNIQQIIEIEDTFETLRAAVAASGLNTMLEGNGQYTLLAPTNEAFEKIPSETLNRILGDPEALRDLLNNHILKSAMCAEAIVAGLSVETLEGTTLEVGCSGDMLTINGKAIISNKDILATNGVIHYIDELLIPDSAKTLFELAAESDVSTAIDLFRQAGLGNHLSGSERLTLLAPLNSVFKDGTPPIDAHTRNLLRNHIIKDQLASKYLYHGQTLETLGGKKLRVFVYRNSLCIENSCIAAHDKRGRYGTLFTMDRVLTPPMGTVMDVLKGDNRFSMLVAAIQSAGLTETLNREGVYTVFAPTNEAFRALPPRERSRLLGDAKELANILKYHIGDEILVSGGIGALVRLKSLQGDKLEVSLKNNVVSVNKEPVAEPDIMATNGVVHVITNVLQPPANRPQERGDELADSALEIFKQASAFSRASQRSVRLAPVYQKLLERMKH
Q: How did the “cell adhesion and spreading activity (numbers and surface areas of attached HCE cells)” value [5] turn out when B1 was run?
A: clearly greater than those attached to albumin

Q: And the “inhibition of cell adhesion to fibronectin” value (HCE cells [2])?
A: partially inhibited

Q: And the “inhibition of cell adhesion to βig-h3” value (HCE cells [2])?
A: significantly inhibited

Q: And the “adhesion of K562 cells to coated protein” value (K562 cells)?
A: did not adhere
